Results from patent publication US9573899B2, “USP7 inhibitor compounds and methods of use” (Genentech, Inc., priority 2015, dated 2017).

Target: T1, USP7, full-length, native C-Terminus (Homo sapiens, UniProt Q93009)
T1 construct: USP7, full-length, native C-Terminus, 0.2 nM
Experiment: Biochemical USP7 assay with Ubiquitin-Rho110 substrate, compounds pre-incubated with USP7 (USP7_Ub-Rho preInc)
Details: compounds pre-mixed with USP7, 1 hour incubation, before substrate; read-out: USP7 Ub-Rho preInc (IC50)
Method: Biochemical USP7 assays using Ubiquitin-Rho110 as a substrate: The final assay conditions were as follows: The Reaction Buffer consisted of: 50 mM Tris (pH 7.5), 0.01% (v/v) Triton X-100, 2.5 mM Dithiothreitol, 0.1% (w/v) bovine gamma globulin (Sigma cat #G5009-25G); USP7, full-length, native C-Terminus, 0.2 nM; the substrate, Ubiquitin-Rho110 (Boston Biochem cat #U-555), 1 uM. Reactions were carried out for 1 hour at room temperature, in black 20 μL volume polystyrene ProxiPlate 384 F Plus® (PerkinElmer cat #6008260).
Test compounds, including a control USP7 inhibitor (Ub-aldehyde, Boston Biochem cat #U-201) were serially diluted in DMSO, in 384 well clear V-bottom polypropylene plates (Greiner cat #781280). Compounds in DMSO were diluted 10-fold into Reaction Buffer, to achieve 3-fold the final desired concentration. The substrate, Ubiquitin-Rho110 (Boston Biochem cat #U-555), was prepared at 3 μM (3-fold the final concentration) and 5 ul was dispensed into the reaction plate. 5 ul of the compounds (diluted in Reaction Buffer at 3-fold the final concentration) were transferred to the reaction plate. 5 ul of 0.6 nM USP7 (diluted in Reaction Buffer at 3-fold the final concentration) was transferred to the reaction plate to initiate the reaction. After 1 hour incubation at room temperature the reaction was quenched by the addition of 5 ul of 400 mM acetic acid. The enzymatic product was measured by quantifying the fluorescence signal of cleaved Rhodamine-110 using excitation at 485 nm and emission at 535 nm. When pre-incubation of USP7 with compounds was required, the order of addition of reagents was modified to pre-mix the compounds with USP7 (with a 1 hour incubation period), prior to the addition of the substrate and the initiation of the reaction period. Percentage inhibition values were calculated relative to a no enzyme control and a uninhibited enzyme control. Curve fitting and IC50 calculations were carried out using Genedata Screener software.

T1 sequence (Q93009 whole entry): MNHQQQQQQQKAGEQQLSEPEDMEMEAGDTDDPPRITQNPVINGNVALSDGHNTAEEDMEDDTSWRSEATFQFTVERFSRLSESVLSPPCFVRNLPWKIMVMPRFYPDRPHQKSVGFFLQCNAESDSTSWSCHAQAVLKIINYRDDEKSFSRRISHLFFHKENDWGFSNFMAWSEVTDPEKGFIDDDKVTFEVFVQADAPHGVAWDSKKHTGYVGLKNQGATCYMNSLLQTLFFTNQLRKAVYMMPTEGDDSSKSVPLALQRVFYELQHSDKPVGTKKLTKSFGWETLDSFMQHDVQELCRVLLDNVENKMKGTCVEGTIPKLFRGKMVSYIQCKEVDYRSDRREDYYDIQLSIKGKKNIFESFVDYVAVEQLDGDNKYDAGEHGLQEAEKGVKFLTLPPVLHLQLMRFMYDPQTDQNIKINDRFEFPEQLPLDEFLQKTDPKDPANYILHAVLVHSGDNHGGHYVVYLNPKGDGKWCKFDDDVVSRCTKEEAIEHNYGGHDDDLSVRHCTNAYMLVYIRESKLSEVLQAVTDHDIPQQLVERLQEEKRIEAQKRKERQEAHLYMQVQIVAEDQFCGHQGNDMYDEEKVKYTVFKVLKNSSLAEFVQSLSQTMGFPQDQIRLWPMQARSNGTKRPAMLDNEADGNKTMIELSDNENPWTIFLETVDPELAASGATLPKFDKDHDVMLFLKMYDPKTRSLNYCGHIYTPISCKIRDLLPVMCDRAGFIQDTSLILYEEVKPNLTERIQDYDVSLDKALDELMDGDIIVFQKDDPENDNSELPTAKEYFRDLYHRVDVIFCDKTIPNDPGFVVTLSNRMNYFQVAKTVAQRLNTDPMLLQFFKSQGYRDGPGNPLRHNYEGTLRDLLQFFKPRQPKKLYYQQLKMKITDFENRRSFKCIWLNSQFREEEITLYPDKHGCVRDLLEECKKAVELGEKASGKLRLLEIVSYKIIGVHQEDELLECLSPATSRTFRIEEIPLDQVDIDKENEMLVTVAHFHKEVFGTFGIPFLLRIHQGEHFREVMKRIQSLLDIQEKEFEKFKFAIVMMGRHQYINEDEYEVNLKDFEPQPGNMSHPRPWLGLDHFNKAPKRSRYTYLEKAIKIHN

| IC50 | SMILES |
| --- | --- |
| 19.2 µM | CCc1c(-c2cccc(N)c2)cnc(N)c1-c1ccc(O)cc1 [Compound 90, 4-[2-amino-5-(3-aminophenyl)-4-ethyl-3-pyridyl]phenol] |
| > 20 µM | CCc1c(-c2cccc(C)c2)cnc(N)c1-c1ccc(O)cc1 [Compound 57, 4-[2-amino-4-ethyl-5-(m-tolyl)-3-pyridyl]phenol] |
| 11.7 µM | CCc1c(-c2cncc(C#N)c2)cnc(N)c1-c1ccc(O)cc1 [Compound 63, 5-[6-amino-4-ethyl-5-(4-hydroxyphenyl)-3-pyridyl]pyridine-3-carbonitrile] |
| 14.6 µM | CCc1c(-c2cccc3nn(C)cc23)cnc(N)c1-c1ccc(O)cc1 [Compound 85, 4-[2-amino-4-ethyl-5-(2-methylindazol-4-yl)-3-pyridyl]phenol] |
| 19.3 µM | CCc1c(-c2ccc(O)cc2)cnc(N)c1-c1ccc2[nH]nc(C)c2c1 [Compound 59, 4-[6-amino-4-ethyl-5-(3-methyl-1H-indazol-5-yl)-3-pyridyl]phenol] |
| 11 µM | CCc1c(-c2cccc(Cl)c2)cnc(N)c1-c1ccc(O)cc1 [Compound 77, 4-[2-amino-5-(3-chlorophenyl)-4-ethyl-3-pyridyl]phenol] |
| > 20 µM | CCc1c(-c2ccc(CO)cc2)cnc(N)c1-c1ccc(O)cc1 [Compound 55, 4-[2-amino-4-ethyl-5-[4-(hydroxymethyl)phenyl]-3-pyridyl]phenol] |
| > 63.3 µM | CCc1c(-c2cccc(C(=O)NC(C)C)c2)cnc(N)c1-c1ccc(O)cc1 [Compound 69, 3-[6-amino-4-ethyl-5-(4-hydroxyphenyl)-3-pyridyl]-N-isopropyl-benzamide] |
| 7.2 µM | CCc1c(-c2ccc3cn[nH]c3c2)cnc(N)c1-c1ccc(O)cc1 [Compound 84, 4-[2-amino-4-ethyl-5-(1H-indazol-6-yl)-3-pyridyl]phenol] |
| 13.5 µM | CCc1c(-c2ccc3[nH]c(C)nc3c2)cnc(N)c1-c1ccc(O)cc1 [Compound 86, 4-[2-amino-4-ethyl-5-(2-methyl-1H-benzimidazol-5-yl)-3-pyridyl]phenol] |
| 70.6 µM | CCc1c(-c2cnn(CC(C)C)c2)cnc(N)c1-c1ccc(O)cc1 [Compound 71, 4-[2-amino-4-ethyl-5-(1-isobutylpyrazol-4-yl)-3-pyridyl]phenol] |
| 47 µM | CCc1c(-c2ccc(N)cc2)cnc(N)c1-c1ccc(O)cc1 [Compound 91, 4-[2-amino-5-(4-aminophenyl)-4-ethyl-3-pyridyl]phenol] |
| 9.6 µM | CCc1c(-c2ccc(O)c(C#N)c2)cnc(N)c1-c1ccc(O)cc1 [Compound 94, 5-[6-amino-4-ethyl-5-(4-hydroxyphenyl)-3-pyridyl]-2-hydroxy-benzonitrile] |
| 17.6 µM | CCc1c(-c2ccc(Cl)cc2)cnc(N)c1-c1ccc(O)cc1 [Compound 80, 4-[2-amino-5-(4-chlorophenyl)-4-ethyl-3-pyridyl]phenol] |
| 15.7 µM | CCc1c(-c2ccccc2Cl)cnc(N)c1-c1ccc(O)cc1 [Compound 78, 4-[2-amino-5-(2-chlorophenyl)-4-ethyl-3-pyridyl]phenol] |
| 106 µM | CCc1c(-c2ccc(O)c(C(N)=O)c2)cnc(N)c1-c1ccc(O)cc1 [Compound 95, 5-[6-amino-4-ethyl-5-(4-hydroxyphenyl)-3-pyridyl]-2-hydroxy-benzamide] |
| 3.6 µM | CCc1c(-c2ccc(NC(C)=O)nc2)cnc(N)c1-c1ccc(O)cc1 [Compound 75, N-[5-[6-amino-4-ethyl-5-(4-hydroxyphenyl)-3-pyridyl]-2-pyridyl]acetamide] |
| 7.7 µM | CCc1c(-c2ccc(C(=O)NC3CC3)cc2)cnc(N)c1-c1ccc(O)cc1 [Compound 65, 4-[6-amino-4-ethyl-5-(4-hydroxyphenyl)-3-pyridyl]-N-cyclopropyl-benzamide] |
| 167 µM | CCc1c(-c2ccc(C(=O)N3CCOCC3)cc2)cnc(N)c1-c1ccc(O)cc1 [Compound 60, [4-[6-amino-4-ethyl-5-(4-hydroxyphenyl)-3-pyridyl]phenyl]-morpholino-methanone] |
| > 20 µM | CCc1c(-c2ccc(F)c(C)c2)cnc(N)c1-c1ccc(O)cc1 [Compound 79, 4-[2-amino-4-ethyl-5-(4-fluoro-3-methyl-phenyl)-3-pyridyl]phenol] |

Second part, the compound before the results:

| SMILES | IC50 |
| --- | --- |
| CCc1c(-c2ccccc2C)cnc(N)c1-c1ccc(O)cc1 [Compound 33, 4-[2-amino-4-ethyl-5-(o-tolyl)-3-pyridyl]phenol] | > 63.3 µM |
| CCc1c(-c2ccccc2F)cnc(N)c1-c1ccc(O)cc1 [Compound 50, 4-[2-amino-4-ethyl-5-(2-fluorophenyl)-3-pyridyl]phenol] | 14.2 µM |
| CCc1c(-c2cccc(C#N)c2)cnc(N)c1-c1ccc(O)cc1 [Compound 49, 3-[6-amino-4-ethyl-5-(4-hydroxyphenyl)-3-pyridyl]benzonitrile] | 5.4 µM |
| CCc1c(-c2ccc(O)cc2)cnc(N)c1-c1cccc(NS(C)(=O)=O)c1 [Compound 41, N-[3-[2-amino-4-ethyl-5-(4-hydroxyphenyl)-3-pyridyl]phenyl]methanesulfonamide] | 118 µM |
| CCc1c(-c2cccc(C(N)=O)c2)cnc(N)c1-c1ccc(O)cc1 [Compound 46, 3-[6-amino-4-ethyl-5-(4-hydroxyphenyl)-3-pyridyl]benzamide] | 114 µM |
| CCc1c(-c2ccc(O)cc2)cnc(N)c1-c1cncc(C#N)c1 [Compound 29, 5-[2-amino-4-ethyl-5-(4-hydroxyphenyl)-3-pyridyl]pyridine-3-carbonitrile] | 18.6 µM |
| CCc1c(-c2ccc(Cl)c(C)c2)cnc(N)c1-c1ccc(O)cc1 [Compound 44, 4-[2-amino-5-(4-chloro-3-methyl-phenyl)-4-ethyl-3-pyridyl]phenol] | > 20 µM |
| CCc1c(-c2cccnc2)cnc(N)c1-c1ccc(O)cc1 [Compound 39, 4-[2-amino-4-ethyl-5-(3-pyridyl)-3-pyridyl]phenol] | 41 µM |
| CCc1c(-c2ccc(O)cc2)cnc(N)c1-c1cccc(N2CCOCC2)c1 [Compound 22, 4-[6-amino-4-ethyl-5-(3-morpholinophenyl)-3-pyridyl]phenol] | > 63.3 µM |
| CCc1c(-c2ccc(C)nc2)cnc(N)c1-c1ccc(O)cc1 [Compound 35, 4-[2-amino-4-ethyl-5-(6-methyl-3-pyridyl)-3-pyridyl]phenol] | 31.2 µM |
| CCc1c(-c2ccc(O)cc2)cnc(NC)c1-c1ccc(O)cc1 [Compound 43, 4-[4-ethyl-5-(4-hydroxyphenyl)-6-(methylamino)-3-pyridyl]phenol] | 6.8 µM |
| CCc1c(-c2cccc(N3CCNCC3)c2)cnc(N)c1-c1ccc(O)cc1 [Compound 42, 4-[2-amino-4-ethyl-5-(3-piperazin-1-ylphenyl)-3-pyridyl]phenol] | 165 µM |
| CCc1c(-c2ccc(O)cc2)cnc(NCC2CC2)c1-c1ccc(O)cc1 [Compound 40, 4-[6-(cyclopropylmethylamino)-4-ethyl-5-(4-hydroxyphenyl)-3-pyridyl]phenol] | 19.9 µM |
| CCc1c(-c2ccc(O)cc2)cnc(N)c1-c1cccc(C#N)c1 [Compound 19, 3-[2-amino-4-ethyl-5-(4-hydroxyphenyl)-3-pyridyl]benzonitrile] | 9.9 µM |
| CCc1c(-c2cccc(C(C)C)c2)cnc(N)c1-c1ccc(O)cc1 [Compound 47, 4-[2-amino-4-ethyl-5-(3-isopropylphenyl)-3-pyridyl]phenol] | > 20 µM |
| CCc1c(-c2ccccc2)cnc(N)c1-c1ccc(O)cc1 [Compound 37, 4-(2-amino-4-ethyl-5-phenyl-3-pyridyl)phenol] | 17.8 µM |
| CCCNc1ncc(-c2ccc(O)cc2)c(CC)c1-c1ccc(O)cc1 [Compound 15, 4-[4-ethyl-5-(4-hydroxyphenyl)-6-(propylamino)-3-pyridyl]phenol] | 10.1 µM |
| CCc1c(-c2ccncc2)cnc(N)c1-c1ccc(O)cc1 [Compound 38, 4-[2-amino-4-ethyl-5-(4-pyridyl)-3-pyridyl]phenol] | 52.4 µM |
| CCc1c(-c2ccc(O)cc2)cnc(N)c1-c1ccccc1 [Compound 16, 4-(6-amino-4-ethyl-5-phenyl-3-pyridyl)phenol] | 60.7 µM |
| CCc1c(-c2ccc(O)cc2)cnc(N)c1-c1cccc(CNC(=O)OC(C)(C)C)c1 [Compound 23, tert-butyl N-[[3-[2-amino-4-ethyl-5-(4-hydroxyphenyl)-3-pyridyl]phenyl]methyl]carbamate] | > 6.3 µM |
| CCc1c(-c2ccc(O)cc2)cnc(N)c1-c1ccc(NS(C)(=O)=O)cc1 [Compound 30, N-[4-[2-amino-4-ethyl-5-(4-hydroxyphenyl)-3-pyridyl]phenyl]methanesulfonamide] | 19.6 µM |
| CCc1c(-c2cccc(NC(C)=O)c2)cnc(N)c1-c1ccc2cn[nH]c2c1 [Compound 14, N-[3-[6-amino-4-ethyl-5-(1H-indazol-6-yl)-3-pyridyl]phenyl]acetamide] | 136 µM |
